Laboratory results taken from patent publication US10662169B2, “Catechol derivative and pharmaceutical composition comprising the same” (AUTOPHAGYSCIENCES INC., priority 2015, dated 2020).

Legend:
[1] = test system: liver fibrosis induced by carbon tetrachloride; experiment: Model of liver fibrosis induced by carbon tetrachloride (chronic); type: in vivo, C57BL/6 mice; conditions: for liver fibrosis, Masson's Trichrome staining: CCl4 0.8 ml/kg i.p., FIG. 10
Procedure: In order to confirm the effect of inhibiting liver fibrosis caused by chronic liver injury, carbon tetrachloride was administered to C57BL/6 mice to induce chronic liver injury, thereby inducing liver fibrosis, and then the compounds according to the present invention were administered. It was then confirmed whether chronic liver injuries were inhibited. Five-week-old female C57BL/6 mice were introduced and acclimated for one week, and then divided into six groups respectively; a normal control group, a group to which carbon tetrachloride was administered, and groups to which the compounds according to the present invention (Examples 1 and 5) were administered. Carbon tetrachloride was dissolved in corn oil and administered intraperitoneally at a dose of 0.8 ml/kg (body weight) twice a day, for a total of 8 days. Twenty-four hours after the final oral administration, an autopsy was performed to remove a sample of liver tissue and fix it, thus preparing a tissue specimen. After preparation of tissue specimen slides, H & E staining was performed, and liver tissue injury as well as inflammatory cell infiltration in liver tissue were confirmed by microscopy. In addition, Masson's Trichrome staining was performed, and collagen deposition in the liver tissue was confirmed by microscope.

[2] = test system: LC3-II in primary hepatocytes; experiment: Autophagy activation: LC3-II Western immunoblotting in primary hepatocytes, ischemia-reperfusion model; type: cell-based, C57BL/6 mice; conditions: FIG. 1, FIG. 2
Procedure: Primary hepatocyte was isolated from male C57BL/6 mice by a collagenase perfusion method which is a known method (Gastroenterology 2011, 141, 2188). Survival rate of the isolated cells was measured by trypan blue exclusion method. Autophagy was induced by ischemia-reperfusion method (Gastroenterology 2011, 141, 2188).
Specifically, in order to induce ischemia, hepatocytes were incubated at 37° C. in Krebs-Ringer-HEPES (KRH0) buffer (pH 6.2) in an anaerobic chamber for 2 hours. The respective hepatocytes were treated with DMSO, the compound prepared in Examples described above, or Rapamycin as a control substance, and then KRH buffer solution at pH 7.4 was treated under aerobic conditions for 1 hour to induce reperfusion. […] The amount of protein was measured with bovine serum albumin as a protein standard using Bio-Rad Protein Assay Kit (Cat No. 500-0002). […] Then, bands were measured using ECL (Enhanced Chemiluminescence, Thermo Scientific, Cat No. 34080). […]
The amount of LC3-II increased by the compound treatment was quantified by measuring the band density, and then compared with the amount of LC3-II increased by the treatment of Rapamycin used as a control substance, and the comparison values are shown in Table 1.

[3] = test system: acute liver injury induced by carbon tetrachloride; experiment: Model of acute liver injury induced by carbon tetrachloride; type: in vivo, C57BL/6 mice; conditions: 50 mg/kg orally three times every 12 hours, then CCl4 5 mL/kg i.p.; autopsy 24 hours later; FIG. 4
Procedure: Attempts were made to confirm the inhibitory effect of autophagy activator on liver injury in an animal model of induced liver fibrosis due to acute liver injury. In order to confirm the effect of inhibiting acute liver injury, carbon tetrachloride (CCl4) was administered to C57BL/6 mice to induce acute liver injury, and then the compound according to the present invention was administered. It was then confirmed whether liver injuries were inhibited. Five-week-old female C57BL/6 mice were introduced and acclimated for one week, and then divided into six groups respectively; a normal control group, a group to which carbon tetrachloride was administered, and groups to which the compounds according to the present invention (Examples 1, 2, 5, and 7) were administered. Each of the compounds according to the present invention was dissolved in corn oil and administered orally three times at a dose of 50 mg/kg (body weight) every 12 hours. 30 Minutes after final oral administration, carbon tetrachloride was intraperitoneally administered at a dose of 5 mL/kg (body weight) and then autopsied 24 hours later top remove a sample of liver tissue under autopsy and fix it, thereby preparing a tissue specimen. After preparation of tissue specimen slides, H & E staining was performed and liver injuries were confirmed with a microscope.

[4] = test system: liver fibrosis induced by bile duct ligation; experiment: Model of liver fibrosis induced by bile duct ligation (BDL); type: in vivo, Sprague Dawley (SD) rats; conditions: BDL rats; 12.5, 25 and 50 mg/kg orally once a day for 14 days; FIG. 13
Procedure: In order to confirm the effect of inhibiting liver fibrosis caused by chronic liver injury, bile duct ligation (BDL) was performed in Sprague Dawley (SD) rats to induce chronic liver injury, thereby inducing liver fibrosis, and then the compounds according to the present invention were administered. It was then confirmed whether chronic liver injuries were inhibited.
Seven-week-old female SD rats were introduced and acclimated for one week, and then divided into five groups respectively; a control group, a bile duct ligation surgery group, and groups to which the compound according to the present invention (Example 15) was administered at three doses (12.5, 25 and 50 mg/kg body weight). In the control group, the bile duct was not exposed or ligated after laparotomy, and the other groups performed bile duct ligation surgery. One week after bile duct ligation, the compound according to the present invention (Example 1) was dissolved in corn oil and administered orally for each dose once a day for a total of 14 days. […] In addition, a part of the removed liver (10 mg) was decomposed to perform a quantitative experiment of hydroxyproline which is a major component of collagen, and the amount of collagen deposited was quantified, thereby confirming the effects of the compound according to the present invention.

mTOR = mTOR enzyme activity: p-mTOR (Ser 2448) Western immunoblotting in hepatocyte ischemia-reperfusion model; type: cell-based, C57BL/6 mice; conditions: hepatocytes, FIG. 3
Procedure: Western immunoblotting was performed using the cell-disrupted liquid obtained in Experimental Example 1. The PVDF membrane obtained from electrophoresis and electroblotting was placed in a TBS-tween solution containing an antibody against mTOR or p-mTOR (Ser 2448) proteins (Cell Signaling), allowed to stand at 4° C. for 12 hours, and then labeled with a secondary antibody labeled with HRP (Horseradish Peroxidase, Sigma Co., Cat No. P0889). Then, bands were measured using ECL (Enhanced Chemiluminescence, Thermo Scientific, Cat No. 34080).
The measurement results are shown in FIG. 3. mTOR is known to be one of the major proteins regulating autophagy. mTOR serves to inhibit autophagy at a quiescent state, whereas phosphorylation at serine 2448-position inhibits the function of mTOR, resulting in activation of autophagy.

[5] = test system: liver fibrosis induced by thioacetamide; experiment: Model of liver fibrosis induced by thioacetamide (TAA); type: in vivo, C57BL/6 mice; conditions: TAA 200 mg/kg i.p. three times a week for 6 weeks; compound 50 mg/kg orally once a day for 8 days; FIG. 7
Procedure: In order to confirm the effect of inhibiting liver fibrosis caused by chronic liver injury, thioacetamide (TAA) was administered to C57BL/6 mice to induce chronic liver injury, thereby inducing liver fibrosis, and then the compounds according to the present invention were administered. It was then confirmed whether chronic liver injuries were inhibited. Five-week-old female C57BL/6 mice were introduced and acclimated for one week, and then divided into six groups respectively; a normal control group, a group to which thioacetamide was administered, and groups to which the compounds according to the present invention (Examples 2, 5 and 7) were administered. Thioacetamide was dissolved in phosphate-buffered physiological saline and administered intraperitoneally at a dose of 200 mg/kg (body weight) three times a week, for a total of 6 weeks. Three compounds according to the present invention was dissolved in corn oil […] and administered orally at a dose of 50 mg/kg (body weight) once a day for a total of 8 days. Twenty-four hours after the final oral administration, an autopsy was performed to remove a sample of liver tissue and fix it, thus preparing a tissue specimen. After preparation of tissue specimen slides. H & E staining was performed, and liver tissue injury as well as inflammatory cell infiltration in liver tissue were confirmed by microscopy. […]

| Structure (SMILES) | liver fibrosis, Masson's Trichrome staining [1] | collagen deposition, Example 1 compared with Example 5 ([1]; CCl4 fibrosis model, Masson's Trichrome staining) | increase in LC3-II (autophagy induction), Western immunoblotting [2] | liver injury, H & E staining [3] | collagen deposition, quantitative experiment of hydroxyproline in liver tissue [4] | phosphorylation of mTOR at serine 2448 position (mTOR) | liver fibrosis (collagen deposition), Masson's Trichrome staining [5] |
| --- | --- | --- | --- | --- | --- | --- | --- |
| COc1ccc(-c2ccc(C(=O)NC(C)C)s2)cc1OC [Example 1, 5-(3,4-dimethoxyphenyl)-N-isopropylthiophene-2-carboxamide] | fibrosis was alleviated | collagen deposition was less | significant increase in autophagy induction | liver injury was clearly recovered | the smaller the collagen deposition | significantly inhibited | – |
| CC(C)NC(=O)c1ccc(-c2ccc3c(c2)OCO3)s1 [Example 2, 5-(benzo[d][1,3]dioxol-5-yl)-N-isopropylthiophene-2-carboxamide] | – | – | – | recovery effect of liver injury was relatively small | – | – | fibrosis was clearly alleviated |
| CC(C)CNC(=O)c1ccc(-c2ccc3c(c2)OCO3)s1 [Example 5, 5-(benzo[d][1,3]dioxol-5-yl)-N-isobutylthiophene-2-carboxamide] | fibrosis was alleviated | – | significant increase in autophagy induction | liver injury was clearly recovered | – | – | fibrosis was clearly alleviated |
| COc1ccc(-c2ccc(C(=O)Nc3ccccc3)s2)cc1OC [Example 7, 5-(3,4-dimethoxyphenyl)-N-phenylthiophene-2-carboxamide] | – | – | – | recovery effect of liver injury was relatively small | – | – | – |
